Common to all, as to assay type: functional, cell-based
In one experiment the test system is HL-60. Description: Antiproliferative activity against human HL60 cell line.
The subject of the next experiment is HT-29. In words: Antiproliferative activity against human HT29 cell line.
A further experiment deals with MCF7. In words: Antiproliferative activity against human MCF7 cell line.
A further experiment relates to HeLa. Description: Antiproliferative activity against human HeLa cell line.
The subject of another experiment is MRC5. Description: Antiproliferative activity against human MRC5 cell line.
The subject of a further experiment is K562. Description: Antiproliferative activity against human K562 cell line.

On to `CCCCCC(=O)N[C@@H]1[C@H](O)[C@@H](CO)O[C@H]1c1nc(C(N)=O)cs1`, for which the IC50 in the experiment with HL-60 is greater than 100 µM; with HT-29 it was greater than 100 µM; in the experiment with MCF7 it was 0.014 µM; in the experiment on HeLa it was 8.75 µM; in the experiment with MRC5, greater than 100 µM; in the experiment with K562, greater than 100 µM.

Regarding `CCCCCCCCCCCC(=O)N[C@@H]1[C@H](O)[C@@H](CO)O[C@H]1c1nc(C(N)=O)cs1`, the IC50 with HL-60 was 4.82 µM; with HT-29, 0.011 µM; with MCF7, greater than 100 µM; with HeLa it was 3.22 µM; in the experiment on MRC5 it was greater than 100 µM; in the experiment with K562 it was 35.6 µM.

With `NC(=O)c1csc([C@@H]2O[C@H](CO)[C@@H](O)[C@H]2O)n1` [TIAZOFURIN], the IC50 in the experiment with MCF7 came to 7.98 µM.

In general, IC50 refers to the concentration that gives 50% inhibition.

Source of the values: ChEMBL document CHEMBL1147017, “Synthesis and antiproliferative activity of two new tiazofurin analogues with 2'-amido functionalities” (Bioorg Med Chem Lett, 2006).
